Measured values published in patent US20240245693A1, “COMPOSITIONS AND METHODS OF TISSUE REGENERATION THERAPY” (The Regents of the University of California, priority 2021, published 2024).
“Also recorded” adds a separate entry of the source.

Key:
human dermal fibroblasts = test: in vitro collagen synthesis assay using human dermal fibroblasts; format: cell-based
Experimental: Without serotonin (5-HT) supplementation, the majority of selected compounds maintained fibroblastic collagen synthesis.
(§1) High throughput screening (HTS) of well-defined chemical compounds was performed using Npas2-LacZ reporter mouse skin fibroblasts. Chemical genomics analysis of hit compounds indicated the involvement of monoamine-related pathways for regulating Npas2 expression. To identify the regulatory mechanism of Npas2 in human dermal fibroblasts, a library of lentivirus expression vectors containing human monoamine-related genes was selected for over-expression study.

[1] = system: human periodontal ligament MSC (PDLSC); test: in vitro osteogenic differentiation assay using human periodontal ligament stem cells (PDLSC); format: cell-based; conditions: supplementation of compound; FIG. 8
[2] = system: mouse splinted skin wound; test: mouse excisional splinted skin wound healing model, topical application; format: in vivo; conditions: daily topical application at 5 micromolar in 10% DMSO vehicle; FIG. 5
Excerpt: FIGS. 1A-1B show wound healing in mouse excisional skin wound splinting model, wherein a splinting ring is tightly adhered to the skin around the wound, thereby preventing local skin contraction. The wound is thus healed through a process of granulation and re-epithelialization similar to that occurring in human. The figures present a time course healing of skin splinted wound in wild type (WT) (FIG. 1A) and Npas2 KO mice (FIG. 1B).
Skin of experimental animals such as mice are similarly composed of multiple tissues; however excisional wound heals faster in part due to active wound contraction. Therefore, mouse wound healing model employs a silicone stent around the excisional skin, which prevents contraction allowing the healing through re-epithelialization and granulation tissue formation. The mouse splinted skin wound model has provided a common experimental platform, which allows investigation of critical molecules for skin wound healing using genetically manipulated mice. Knockout mutation of wound inflammation related molecules such as Sphingosine kinase-1 or mast cell proteases was reported to delay the wound closure and the proliferative phase of healing, respectively.
High throughput screening (HTS) of well-defined chemical compounds was performed using Npas2-LacZ reporter mouse skin fibroblasts. […]

Npas2 = Npas2 expression in human dermal fibroblasts; format: cell-based; conditions: serotonin supplementation; FIG. 9F
Experimental: FIGS. 9A-9G show the effect of HTR1B and HTR2B on human dermal fibroblasts.
as §1

N#Cc1cc(CN2CCC(Nc3ncnc4sc(Cl)cc34)CC2)ccc1F [PRX-08066, 5-[[4-[(6-chlorothieno[2,3-d]pyrimidin-4-yl)amino]piperidin-1-yl]methyl]-2-fluorobenzonitrile]
fibroblastic collagen synthesis (human dermal fibroblasts; in the presence of 10 μM 5-HT supplementation, FIG. 4): high level of collagen synthesis
osteogenic differentiation of PDLSC [1]: effective compound; also recorded: enhanced the differentiation of PDLSC
wound closure and skin tissue regeneration [2]: significant wound closure and skin tissue regeneration

CN1CCC(=C2c3ccccc3C=Cc3ccccc32)CC1 [Cyproheptadine, 1-methyl-4-(2-tricyclo[9.4.0.03,8]pentadeca-1(15),3,5,7,9,11,13-heptaenylidene)piperidine]
wound closure and skin tissue regeneration [2]: significant wound closure and skin tissue regeneration

NCCc1c[nH]c2ccc(O)cc12 [serotonin]
in vitro collagen synthesis of human dermal fibroblasts (human dermal fibroblasts; serotonin supplementation, FIG. 9E): decreased
Npas2 expression of human dermal fibroblasts (Npas2): increased
